{"source": "ChEMBL document CHEMBL1122859", "about": "“Novel vasopressin analogues that help define a minimum effective antagonist pharmacophore” (J Med Chem, 1985)", "key": {"Vasopressin V2 receptor [1]": {"target": "T1, Vasopressin V2 receptor (Sus scrofa, UniProt P32307)", "T1 sequence (P32307 whole entry)": "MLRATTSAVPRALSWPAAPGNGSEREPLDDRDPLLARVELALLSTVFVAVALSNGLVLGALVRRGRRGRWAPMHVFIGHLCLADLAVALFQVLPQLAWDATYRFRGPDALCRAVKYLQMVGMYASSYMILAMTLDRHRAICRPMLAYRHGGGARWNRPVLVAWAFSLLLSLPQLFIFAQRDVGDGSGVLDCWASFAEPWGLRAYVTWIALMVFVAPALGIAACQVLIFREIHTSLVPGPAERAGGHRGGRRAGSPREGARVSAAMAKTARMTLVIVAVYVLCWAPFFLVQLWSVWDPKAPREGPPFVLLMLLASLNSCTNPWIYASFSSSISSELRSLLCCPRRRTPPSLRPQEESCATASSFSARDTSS", "experiment": "Tested for inhibition of [3H]LVP binding to vasopressin receptor in medullary membranes of pig kidney.", "assay_type": "cell membranes"}, "Vasopressin V2 receptor [2]": {"target": "T1, Vasopressin V2 receptor", "experiment": "Tested for inhibition of vasopressin-stimulated adenylate cyclase of medullary membranes of pig kidney."}, "Rattus norvegicus": {"system": "Rattus norvegicus", "experiment": "Dose required to lower urine osmolality to 300 mOsm/kg in rat.", "assay_type": "functional"}}, "note": "Numbered stars: 1 amine (or outer) side, 2 acyl side, 3 side chain; on linkers, the order of the positions; unused ones are H or OH. Bridge positions count the residues as written; N and C are the ends. Square brackets hold non-standard residues; d marks the D form. Peptide text beside a SMILES is read from it. * marks the point of attachment. X1 = O=C(CC1(S[*:2])CCCCC1)[*:1]; NH(CH2)5NH2 = NCCCCCN*", "data": [{"smiles": "CCOc1ccc(C[C@H]2NC(=O)CC3(CCCCC3)SSC[C@@H](C(=O)N3CCC[C@H]3C(=O)N[C@@H](CCCCN)C(N)=O)NC(=O)[C@H](CC(N)=O)NC(=O)[C@H](C(C)C)NC(=O)[C@H](Cc3ccccc3)NC2=O)cc1", "note": "[listing 1 of 2 here]", "values": [{"measurement": "Ki", "setting": "Vasopressin V2 receptor [1]", "result": 0.037, "unit": "µM"}, {"measurement": "Ki", "setting": "Vasopressin V2 receptor [2]", "result": 0.0094, "unit": "µM"}]}, {"smiles": "CCOc1ccc(C[C@H]2NC(=O)CC3(CCCCC3)SSC[C@@H](C(=O)N3CCC[C@H]3C(=O)N[C@@H](CCCCN)C(N)=O)NC(=O)[C@H](CC(N)=O)NC(=O)[C@H](C(C)C)NC(=O)[C@H](Cc3ccccc3)NC2=O)cc1", "note": "[listing 2 of 2 here]", "values": [{"measurement": "ED300", "setting": "Rattus norvegicus", "result": 0.022, "unit": "mg/kg"}]}, {"smiles": "CCOc1ccc(C[C@H]2NC(=O)CC3(CCCCC3)SSC[C@@H](C(=O)NCCCCCN)NC(=O)[C@H](CC(N)=O)NC(=O)[C@H](C(C)C)NC(=O)[C@H](Cc3ccccc3)NC2=O)cc1", "note": "[listing 1 of 2 here]", "values": [{"measurement": "Ki", "setting": "Vasopressin V2 receptor [1]", "result": 0.019, "unit": "µM"}, {"measurement": "Ki", "setting": "Vasopressin V2 receptor [2]", "result": 0.0068, "unit": "µM"}]}, {"smiles": "CCOc1ccc(C[C@H]2NC(=O)CC3(CCCCC3)SSC[C@@H](C(=O)NCCCCCN)NC(=O)[C@H](CC(N)=O)NC(=O)[C@H](C(C)C)NC(=O)[C@H](Cc3ccccc3)NC2=O)cc1", "note": "[listing 2 of 2 here]", "values": [{"measurement": "ED300", "setting": "Rattus norvegicus", "result": 0.094, "unit": "mg/kg"}]}, {"smiles": "CCOc1ccc(C[C@H]2NC(=O)CC3(CCCCC3)SSC[C@@H](C(=O)N[C@@H](CCCCN)C(N)=O)NC(=O)[C@H](CC(N)=O)NC(=O)[C@H](C(C)C)NC(=O)[C@H](Cc3ccccc3)NC2=O)cc1", "note": "[listing 1 of 2 here]", "values": [{"measurement": "Ki", "setting": "Vasopressin V2 receptor [1]", "result": 0.026, "unit": "µM"}, {"measurement": "Ki", "setting": "Vasopressin V2 receptor [2]", "result": 0.0058, "unit": "µM"}]}, {"smiles": "CCOc1ccc(C[C@H]2NC(=O)CC3(CCCCC3)SSC[C@@H](C(=O)N[C@@H](CCCCN)C(N)=O)NC(=O)[C@H](CC(N)=O)NC(=O)[C@H](C(C)C)NC(=O)[C@H](Cc3ccccc3)NC2=O)cc1", "note": "[listing 2 of 2 here]", "values": [{"measurement": "ED300", "setting": "Rattus norvegicus", "result": 0.059, "unit": "mg/kg"}]}, {"smiles": "CCOc1ccc(C[C@H]2NC(=O)CC3(CCCCC3)SSC[C@@H](C(=O)N3CCC[C@H]3C(=O)NCCCCCN)NC(=O)[C@H](CC(N)=O)NC(=O)[C@H](C(C)C)NC(=O)[C@H](Cc3ccccc3)NC2=O)cc1", "note": "([dY](Et)FVNCP-{NH(CH2)5NH2}; linker N-5 via X1) [listing 1 of 2 here]", "values": [{"measurement": "Ki", "setting": "Vasopressin V2 receptor [1]", "result": 0.03, "unit": "µM"}, {"measurement": "Ki", "setting": "Vasopressin V2 receptor [2]", "result": 0.0072, "unit": "µM"}]}, {"smiles": "CCOc1ccc(C[C@H]2NC(=O)CC3(CCCCC3)SSC[C@@H](C(=O)N3CCC[C@H]3C(=O)NCCCCCN)NC(=O)[C@H](CC(N)=O)NC(=O)[C@H](C(C)C)NC(=O)[C@H](Cc3ccccc3)NC2=O)cc1", "note": "([dY](Et)FVNCP-{NH(CH2)5NH2}; linker N-5 via X1) [listing 2 of 2 here]", "values": [{"measurement": "ED300", "setting": "Rattus norvegicus", "result": 0.027, "unit": "mg/kg"}]}, {"smiles": "CCOc1ccc(C[C@H]2NC(=O)CC3(CCCCC3)SSC[C@@H](C(=O)N3CCC[C@H]3C(=O)N[C@@H](CCCNC(=N)N)C(N)=O)NC(=O)[C@H](CC(N)=O)NC(=O)[C@H](C(C)C)NC(=O)[C@H](Cc3ccccc3)NC2=O)cc1", "note": "([dY](Et)FVNCPR-NH2; linker N-5 via X1)", "values": [{"measurement": "ED300", "setting": "Rattus norvegicus", "result": 0.0092, "unit": "mg/kg"}]}, {"smiles": "CCOc1ccc(C[C@H]2NC(=O)CC3(CCCCC3)SSC[C@@H](C(=O)N3CCC[C@H]3C(=O)N[C@@H](CCCN=C(N)N)C(=O)NCC(N)=O)NC(=O)[C@H](CC(N)=O)NC(=O)[C@H](C(C)C)NC(=O)[C@H](Cc3ccccc3)NC2=O)cc1", "note": "([dY](Et)FVNCPRG-NH2; linker N-5 via X1)", "values": [{"measurement": "ED300", "setting": "Rattus norvegicus", "result": 0.0112, "unit": "mg/kg"}]}]}
